{"source": "ChEMBL document CHEMBL5370655", "key": {"[1]": {"experiment": "Toxicity in BALB/c mouse xenografted with human H1975-TM cells assessed as appearance of lesions in spleen at 25 to 100 mg/kg, po measured after 25 days by hematoxylin-eosin staining based analysis", "format": "organism-based", "settings": "in vivo, 600 h, dose 25-100 mg/kg, time 25 day"}, "[2]": {"experiment": "Induction of cell cycle arrest in human H1975-TM cells assessed as accumulation at G2/M phase at 250 nM measured after 24 hrs by RNase A/propidium iodide staining based flow cytometric analysis (reference value: 17.6 %)", "format": "functional"}, "[3]": {"experiment": "Tmax in Sprague-Dawley rat at 5 mg/kg, iv measured upto 24 hrs by HPLC-MS/MS analysis", "format": "ADME, organism-based", "settings": "in vivo"}, "[4]": {"test_system": "H1975-TM", "experiment": "Downregulation of AKT level in human H1975-TM cells at 50 to 1000 nM measured after 24 hrs by Western blot analysis", "format": "functional, cell-based", "settings": "dose 50-1000 nM"}, "[5]": {"experiment": "Toxicity in BALB/c mouse xenografted with human H1975-TM cells assessed as appearance of lesions in lung at 25 to 100 mg/kg, po measured after 25 days by hematoxylin-eosin staining based analysis", "format": "organism-based", "settings": "in vivo, 600 h, dose 25-100 mg/kg, time 25 day"}, "[6]": {"experiment": "Induction of cell cycle arrest in human H1975-TM cells assessed as accumulation at G0/G1 phase at 250 nM measured after 24 hrs by RNase A/propidium iodide staining based flow cytometric analysis (reference value: 64.3 %)", "format": "functional"}, "[7]": {"experiment": "Toxicity in BALB/c mouse xenografted with human H1975-TM cells assessed as appearance of lesions in heart at 25 to 100 mg/kg, po measured after 25 days by hematoxylin-eosin staining based analysis", "format": "organism-based", "settings": "in vivo, 600 h, dose 25-100 mg/kg, time 25 day"}, "[8]": {"experiment": "Inhibition of colony formation in human H1975-TM cells at 250 nM incubated for 10 days by crystal violet staining based analysis", "format": "functional", "settings": "time 10 day"}, "[9]": {"experiment": "Induction of apoptosis in human H1975-TM cells assessed as apoptotic cells at 500 nM measured after 24 by Annexin V-FITC and propidium iodide staining based flow cytometric analysis (reference value: 7.08 %)", "format": "functional", "settings": "time 24 hrs"}, "[10]": {"experiment": "Induction of cell cycle arrest in human H1975-TM cells assessed as accumulation at S phase at 250 nM measured after 24 hrs by RNase A/propidium iodide staining based flow cytometric analysis (reference value: 18.1 %)", "format": "functional"}, "[11]": {"experiment": "Cmax in Sprague-Dawley rat at 5 mg/kg, iv measured upto 24 hrs by HPLC-MS/MS analysis", "format": "ADME, organism-based", "set-up": "time < 24 hrs, dose 5 mg/kg, route iv", "settings": "in vivo"}, "[12]": {"experiment": "Induction of apoptosis in human H1975-TM cells assessed as apoptotic cells at 50 nM measured after 24 by Annexin V-FITC and propidium iodide staining based flow cytometric analysis (reference value: 7.08 %)", "format": "functional", "settings": "time 24 hrs"}, "[13]": {"biological_target": "Epidermal growth factor receptor (Homo sapiens, UniProt P00533, C797S/L858R/T790M)", "sequence (P00533 25-1210 T790M/C797S/L858R limits assumed)": "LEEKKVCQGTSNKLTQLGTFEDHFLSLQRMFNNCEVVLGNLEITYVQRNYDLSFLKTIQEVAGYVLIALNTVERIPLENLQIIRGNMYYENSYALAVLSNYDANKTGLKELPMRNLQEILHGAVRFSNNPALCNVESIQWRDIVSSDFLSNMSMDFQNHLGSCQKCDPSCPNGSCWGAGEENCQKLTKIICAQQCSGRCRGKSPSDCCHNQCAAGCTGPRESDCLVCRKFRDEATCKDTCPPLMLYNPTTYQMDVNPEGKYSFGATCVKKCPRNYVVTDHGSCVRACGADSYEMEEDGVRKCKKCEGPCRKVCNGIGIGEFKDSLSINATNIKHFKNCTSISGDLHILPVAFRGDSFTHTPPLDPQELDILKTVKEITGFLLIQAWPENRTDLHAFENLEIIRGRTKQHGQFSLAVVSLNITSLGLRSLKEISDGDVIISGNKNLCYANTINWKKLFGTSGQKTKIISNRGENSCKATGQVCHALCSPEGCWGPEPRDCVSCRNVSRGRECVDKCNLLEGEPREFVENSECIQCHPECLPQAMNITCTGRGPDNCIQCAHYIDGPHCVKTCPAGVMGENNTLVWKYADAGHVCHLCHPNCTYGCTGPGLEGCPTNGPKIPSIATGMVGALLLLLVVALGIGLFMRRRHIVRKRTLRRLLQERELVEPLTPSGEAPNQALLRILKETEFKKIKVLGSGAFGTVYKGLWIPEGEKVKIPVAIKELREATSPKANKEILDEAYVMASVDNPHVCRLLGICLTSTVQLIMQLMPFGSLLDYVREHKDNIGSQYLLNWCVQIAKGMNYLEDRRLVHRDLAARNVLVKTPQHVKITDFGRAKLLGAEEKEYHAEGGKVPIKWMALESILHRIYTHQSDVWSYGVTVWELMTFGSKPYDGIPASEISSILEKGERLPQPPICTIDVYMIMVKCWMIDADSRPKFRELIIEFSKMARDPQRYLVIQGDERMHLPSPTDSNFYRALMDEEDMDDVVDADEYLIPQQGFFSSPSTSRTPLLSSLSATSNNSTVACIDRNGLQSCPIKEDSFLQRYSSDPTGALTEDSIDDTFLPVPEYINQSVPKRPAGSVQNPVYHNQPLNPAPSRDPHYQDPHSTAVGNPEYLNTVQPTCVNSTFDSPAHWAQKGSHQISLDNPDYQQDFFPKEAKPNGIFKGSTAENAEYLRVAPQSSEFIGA"}, "[14]": {"experiment": "MRT (0 to infinity) in Sprague-Dawley rat at 5 mg/kg, iv measured upto 24 hrs by HPLC-MS/MS analysis", "format": "ADME, organism-based", "settings": "in vivo"}, "[15]": {"experiment": "Toxicity in BALB/c mouse xenografted with human H1975-TM cells assessed as appearance of lesions in kidney at 25 to 100 mg/kg, po measured after 25 days by hematoxylin-eosin staining based analysis", "format": "organism-based", "settings": "in vivo, 600 h, dose 25-100 mg/kg, time 25 day"}, "[16]": {"experiment": "Induction of cell cycle arrest in human H1975-TM cells assessed as accumulation at G2/M phase at 500 nM measured after 24 hrs by RNase A/propidium iodide staining based flow cytometric analysis (reference value: 17.6 %)", "format": "functional"}, "[17]": {"experiment": "Half life in Sprague-Dawley rat at 5 mg/kg, iv measured upto 24 hrs by HPLC-MS/MS analysis", "format": "ADME, organism-based", "settings": "in vivo"}, "[18]": {"experiment": "Induction of cell cycle arrest in human H1975-TM cells assessed as accumulation at S phase at 50 nM measured after 24 hrs by RNase A/propidium iodide staining based flow cytometric analysis (reference value: 18.1 %)", "format": "functional"}, "[19]": {"experiment": "Downregulation of EGFR phosphorylation in human H1975-TM cells at 1000 nM measured after 24 hrs by Western blot analysis", "format": "functional"}, "[20]": {"experiment": "Tmax in Sprague-Dawley rat at 50 mg/kg, po measured upto 24 hrs by HPLC-MS/MS analysis", "format": "ADME, organism-based", "settings": "in vivo"}, "[21]": {"experiment": "Induction of apoptosis in human H1975-TM cells assessed as apoptotic cells at 250 nM measured after 24 by Annexin V-FITC and propidium iodide staining based flow cytometric analysis (reference value: 7.08 %)", "format": "functional", "settings": "time 24 hrs"}, "[22]": {"test_system": "H1975-TM", "settings": "Homo sapiens, dose 10-500 nM, time 10.0 day"}, "[23]": {"test_system": "H1975-TM", "experiment": "Downregulation of ERK level in human H1975-TM cells at 50 to 1000 nM measured after 24 hrs by Western blot analysis", "format": "functional, cell-based", "settings": "dose 50-1000 nM"}, "[24]": {"experiment": "Induction of cell cycle arrest in human H1975-TM cells assessed as accumulation at G2/M phase at 50 nM measured after 24 hrs by RNase A/propidium iodide staining based flow cytometric analysis (reference value: 17.6 %)", "format": "functional"}, "[25]": {"biological_target": "Epidermal growth factor receptor (Homo sapiens, UniProt P00533)", "sequence (P00533 whole entry)": "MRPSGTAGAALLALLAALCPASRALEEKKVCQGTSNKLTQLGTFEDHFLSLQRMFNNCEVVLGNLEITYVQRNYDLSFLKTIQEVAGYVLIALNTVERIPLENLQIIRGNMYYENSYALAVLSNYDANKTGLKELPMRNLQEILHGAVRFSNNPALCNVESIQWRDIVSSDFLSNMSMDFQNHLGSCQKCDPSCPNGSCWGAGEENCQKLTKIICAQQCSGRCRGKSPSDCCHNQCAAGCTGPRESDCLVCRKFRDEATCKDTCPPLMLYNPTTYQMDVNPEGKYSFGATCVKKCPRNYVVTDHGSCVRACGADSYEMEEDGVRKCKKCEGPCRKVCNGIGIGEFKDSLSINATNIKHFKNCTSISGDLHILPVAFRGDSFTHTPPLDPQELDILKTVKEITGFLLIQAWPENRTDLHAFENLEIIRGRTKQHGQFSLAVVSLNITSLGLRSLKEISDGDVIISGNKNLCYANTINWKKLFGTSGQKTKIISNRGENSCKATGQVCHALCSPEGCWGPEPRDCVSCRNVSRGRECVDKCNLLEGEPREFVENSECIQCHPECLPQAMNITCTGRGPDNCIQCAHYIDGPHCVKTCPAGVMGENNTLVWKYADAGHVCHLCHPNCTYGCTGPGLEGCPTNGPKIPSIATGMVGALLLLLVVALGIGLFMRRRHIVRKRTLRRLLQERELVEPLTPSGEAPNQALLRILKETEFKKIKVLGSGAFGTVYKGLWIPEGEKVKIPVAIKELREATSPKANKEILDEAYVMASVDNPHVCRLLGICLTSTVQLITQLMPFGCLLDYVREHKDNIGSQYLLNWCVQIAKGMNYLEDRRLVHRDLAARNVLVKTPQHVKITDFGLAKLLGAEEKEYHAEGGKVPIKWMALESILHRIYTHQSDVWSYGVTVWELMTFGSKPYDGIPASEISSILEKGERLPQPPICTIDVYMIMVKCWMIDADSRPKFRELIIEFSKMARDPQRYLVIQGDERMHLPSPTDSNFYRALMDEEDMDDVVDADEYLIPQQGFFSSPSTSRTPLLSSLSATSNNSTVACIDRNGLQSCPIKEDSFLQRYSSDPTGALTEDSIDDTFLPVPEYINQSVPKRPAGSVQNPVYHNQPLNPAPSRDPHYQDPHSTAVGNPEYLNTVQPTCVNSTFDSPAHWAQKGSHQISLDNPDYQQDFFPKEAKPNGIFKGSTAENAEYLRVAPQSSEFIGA", "description": "Inhibition of wild-type EGFR (unknown origin) using polyE4Y1 as substrate incubated for 5 mins with compound followed by substrate addition measured after 60 mins in presence of ATP by ADP-Glo reagent based assay"}, "[26]": {"biological_target": "Epidermal growth factor receptor (Homo sapiens, UniProt P00533, L858R)", "sequence (P00533 25-1210 L858R limits assumed)": "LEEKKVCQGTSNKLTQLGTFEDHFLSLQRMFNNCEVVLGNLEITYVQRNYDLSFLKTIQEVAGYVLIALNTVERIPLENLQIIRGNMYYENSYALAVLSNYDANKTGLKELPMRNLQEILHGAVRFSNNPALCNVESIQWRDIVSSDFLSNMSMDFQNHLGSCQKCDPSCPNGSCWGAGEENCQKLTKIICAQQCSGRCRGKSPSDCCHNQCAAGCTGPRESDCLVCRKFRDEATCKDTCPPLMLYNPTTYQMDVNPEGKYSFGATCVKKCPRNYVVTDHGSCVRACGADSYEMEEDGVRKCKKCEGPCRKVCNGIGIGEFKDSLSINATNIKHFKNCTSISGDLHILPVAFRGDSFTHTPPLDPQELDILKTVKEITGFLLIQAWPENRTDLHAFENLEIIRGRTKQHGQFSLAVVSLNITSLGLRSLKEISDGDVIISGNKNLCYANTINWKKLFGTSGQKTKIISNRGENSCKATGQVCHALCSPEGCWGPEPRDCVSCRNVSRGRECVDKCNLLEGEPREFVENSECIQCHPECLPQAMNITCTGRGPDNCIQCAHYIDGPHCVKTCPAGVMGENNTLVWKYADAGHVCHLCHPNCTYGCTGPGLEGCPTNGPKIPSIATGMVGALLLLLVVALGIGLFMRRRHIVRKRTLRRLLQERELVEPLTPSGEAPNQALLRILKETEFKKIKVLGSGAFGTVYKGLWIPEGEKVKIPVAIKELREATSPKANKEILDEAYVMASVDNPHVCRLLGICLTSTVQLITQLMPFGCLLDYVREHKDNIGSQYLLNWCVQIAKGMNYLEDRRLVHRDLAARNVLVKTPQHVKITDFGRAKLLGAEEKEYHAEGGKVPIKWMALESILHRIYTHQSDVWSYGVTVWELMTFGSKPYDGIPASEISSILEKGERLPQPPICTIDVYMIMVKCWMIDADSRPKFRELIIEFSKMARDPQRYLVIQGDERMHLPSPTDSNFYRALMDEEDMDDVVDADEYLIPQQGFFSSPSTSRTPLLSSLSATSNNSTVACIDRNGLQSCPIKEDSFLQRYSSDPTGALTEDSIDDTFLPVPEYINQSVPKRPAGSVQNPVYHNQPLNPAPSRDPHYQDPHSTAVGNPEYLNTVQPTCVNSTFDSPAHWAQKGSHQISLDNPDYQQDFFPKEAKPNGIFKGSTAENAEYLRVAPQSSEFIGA"}, "[27]": {"experiment": "Induction of cell cycle arrest in human H1975-TM cells assessed as accumulation at S phase at 500 nM measured after 24 hrs by RNase A/propidium iodide staining based flow cytometric analysis (reference value: 18.1 %)", "format": "functional"}, "[28]": {"test_system": "PC-9", "format": "functional, cell-based", "settings": "Homo sapiens, PC-9, 72 h"}, "[29]": {"test_system": "NCI-H1975", "experiment": "Antiproliferative activity against human NCI-H1975 cells assessed as inhibition of cell growth measured after 72 hrs by CCK8 assay", "format": "functional, cell-based", "settings": "NCI-H1975, 72 h"}, "[30]": {"experiment": "Antitumor activity against human H1975-TM cells xenografted in BALB/c mouse assessed as tumor growth inhibition at 100 mg/kg, po measured after 25 days", "format": "functional", "settings": "time 25 day"}, "[31]": {"experiment": "AUC (0 to infinity) in Sprague-Dawley rat at 5 mg/kg, iv measured upto 24 hrs by HPLC-MS/MS analysis", "format": "ADME, organism-based", "set-up": "dose 5 mg/kg, time < 24 hrs, route iv", "settings": "in vivo"}, "[32]": {"experiment": "Toxicity in BALB/c mouse xenografted with human H1975-TM cells assessed as change in body weight at 25 to 100 mg/kg, po measured after 25 days", "format": "organism-based", "settings": "in vivo, 600 h, dose 25-100 mg/kg, time 25 day"}, "[33]": {"biological_target": "Epidermal growth factor receptor (Homo sapiens, UniProt P00533, C797S/EX19DEL/T790M)", "sequence (P00533 whole entry, looked up, stated change not applied)": "as the sequence (P00533 whole entry) above"}, "[34]": {"experiment": "AUC (0 to infinity) in Sprague-Dawley rat at 50 mg/kg, po measured upto 24 hrs by HPLC-MS/MS analysis", "format": "ADME, organism-based", "set-up": "dose 50 mg/kg, time < 24 hrs, route po", "settings": "in vivo"}, "[35]": {"test_system": "H1975-TM", "experiment": "Downregulation of EGFR phosphorylation in human H1975-TM cells at 50 to 1000 nM measured after 24 hrs by Western blot analysis", "format": "functional, cell-based", "settings": "dose 50-1000 nM"}, "[36]": {"experiment": "Antitumor activity against human H1975-TM cells xenografted in BALB/c mouse assessed as tumor growth inhibition at 25 mg/kg, po measured after 25 days", "format": "functional", "settings": "time 25 day"}, "[37]": {"test_system": "PC-9", "experiment": "Antiproliferative activity against human PC-9 cells assessed as inhibition of cell growth measured after 72 hrs by CCK8 assay", "format": "functional, cell-based", "settings": "PC-9, 72 h"}}, "note": "Activity calls are given as the source filed them. The calls are words filed in the database; no cut-off is given here.", "data": [{"compound": "CCS(=O)(=O)N1CCC(c2nc(-c3ccc(F)cc3)c(-c3ccnc(Nc4ccc5c(ccn5CCN(C)C)c4)n3)s2)CC1", "values": [{"measurement": "Activity", "setting": "[1]", "value": "Non-Toxic"}, {"measurement": "Activity", "setting": "[2]", "value": 14, "unit": "%"}, {"measurement": "Tmax", "setting": "[3]", "value": 4.8, "unit": "min"}, {"measurement": "Activity", "setting": "[4]", "value": "Active"}, {"measurement": "Activity", "setting": "[5]", "value": "Non-Toxic"}, {"measurement": "Activity", "setting": "[6]", "value": 70.3, "unit": "%"}, {"measurement": "Activity", "setting": "[7]", "value": "Non-Toxic"}, {"measurement": "inhibition (INH)", "setting": "[8]", "value": 100, "unit": "%"}, {"measurement": "Activity", "setting": "[9]", "value": 27.8, "unit": "%"}, {"measurement": "Activity", "setting": "[10]", "value": 15.7, "unit": "%"}, {"measurement": "Cmax", "setting": "[11]", "value": 761, "unit": "ng/mL"}, {"measurement": "Activity", "setting": "[12]", "value": 19.07, "unit": "%"}, {"measurement": "IC50", "setting": "[13]", "value": 261, "unit": "nM"}, {"measurement": "MRT inf", "setting": "[14]", "value": 4.37, "unit": "h"}, {"measurement": "Activity", "setting": "[15]", "value": "Non-Toxic"}, {"measurement": "Activity", "setting": "[16]", "value": 13.4, "unit": "%"}, {"measurement": "half-life", "setting": "[17]", "value": 4.7, "unit": "h"}, {"measurement": "Activity", "setting": "[18]", "value": 17.3, "unit": "%"}, {"measurement": "Activity", "setting": "[19]", "value": 100, "unit": "%"}, {"measurement": "Tmax", "setting": "[20]", "value": 2, "unit": "h"}, {"measurement": "Activity", "setting": "[21]", "value": 19.88, "unit": "%"}, {"measurement": "inhibition", "setting": "[22]", "value": "Dose-Dependent Effect"}, {"measurement": "Activity", "setting": "[23]", "value": "Active"}, {"measurement": "Activity", "setting": "[24]", "value": 14.4, "unit": "%"}, {"measurement": "IC50", "setting": "[25]", "value": 106, "unit": "nM"}, {"measurement": "IC50", "setting": "[26]", "value": 3, "unit": "nM"}, {"measurement": "Activity", "setting": "[27]", "value": 10.3, "unit": "%"}, {"measurement": "IC50", "setting": "[28]", "value": 30, "unit": "nM"}, {"measurement": "IC50", "setting": "[29]", "value": 210, "unit": "nM"}, {"measurement": "TGI", "setting": "[30]", "value": 62.9, "unit": "%"}, {"measurement": "AUC(0-inf)", "setting": "[31]", "value": 1560, "unit": "ng·h/mL"}, {"measurement": "Activity", "setting": "[32]", "value": "Non-Toxic"}, {"measurement": "IC50", "setting": "[33]", "value": 33, "unit": "nM"}, {"measurement": "AUC(0-inf)", "setting": "[34]", "value": 4780, "unit": "ng·h/mL"}, {"measurement": "Activity", "setting": "[35]", "value": "Active"}, {"measurement": "TGI", "setting": "[36]", "value": 47.5, "unit": "%"}, {"measurement": "IC50", "setting": "[37]", "value": 5, "unit": "nM"}]}]}
